Where two headings read alike, the source gives them in different places.
Assays:
adenosine A1 receptor = target: T1, adenosine A1 receptor (Rattus norvegicus, UniProt P25099); assay: Adenosine Receptor Binding - A1 Receptor Affinity (RBA1), [3H]-N6-cyclohexyladenosine displacement; conditions: [3H]-CHA 1.0 nM, rat brain membranes, 25° C., one hour; read-out: RBA-1, IC50 for adenosine A1 receptor affinity
T1 construct: Whole brain minus cerebellum and brainstem from male Long Evans rats; from tissue; host or cells: whole brain minus cerebellum and brainstem, male Long Evans rats (membranes)
T1 sequence (P25099 1-326): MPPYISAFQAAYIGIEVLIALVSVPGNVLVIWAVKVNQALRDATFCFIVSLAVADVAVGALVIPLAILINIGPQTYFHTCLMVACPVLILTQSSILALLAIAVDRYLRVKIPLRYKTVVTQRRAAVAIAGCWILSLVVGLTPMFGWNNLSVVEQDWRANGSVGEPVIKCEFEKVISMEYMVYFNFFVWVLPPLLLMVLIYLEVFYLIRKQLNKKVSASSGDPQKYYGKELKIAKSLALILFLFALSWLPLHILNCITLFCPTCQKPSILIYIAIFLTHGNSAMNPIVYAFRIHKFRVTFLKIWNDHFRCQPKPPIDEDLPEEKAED
In short: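 Rat forebrain membranes (whole brain minus cerebellum and brainstem, male Long Evans) washed in 0.05 M Tris-HCl pH 7.7, used at 20 mg/ml wet tissue. Bound [3H]-N6-cyclohexyladenosine measured by filtration and scintillation counting; Hill coefficient by log-plot regression, Bmax from Scatchard plot.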

Type 1 Phosphodiesterase = assay: Phosphodiesterase (PDE) Inhibition, Type 1 Phosphodiesterase; assay type: biochemical, bovine (coronary arteries); conditions: Type 1 PDE, at 10^-5 M
In short: (§1)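 PDEs isolated from bovine coronary artery by DEAE-cellulose chromatography, fractions typed by cAMP/cGMP hydrolysis ± calmodulin/CaCl2. Assay in 40 mM Tris-HCl (pH 8.0), 5 mM MgCl, 4 mM 2-mercaptoethanol with 1.0 μM ^3H-cyclic AMP or ^3H-cyclic GMP; final DMSO 1.25% (smooth muscle) or 2.5% (cardiac, platelet).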

Type 3 Phosphodiesterase = assay: Phosphodiesterase (PDE) Inhibition, Type 3 Phosphodiesterase; assay type: biochemical, bovine (coronary arteries); conditions: Type 3 PDE, at 10^-5 M, substrate 3H-cAMP 1.0 μM
In short: as §1

[1] = test system: pentobarbital-anesthetized dog; assay: In Vivo Myocardial Inotropic Activity in Anesthetized Dog (CVAD); design: species or system dog (adult mongrel); conditions: for change in vivo at 0.1 mg/kg / change in vivo at 0.31 mg/kg / change in vivo at 1 mg/kg: Canis lupus familiaris, iv; for change in vivo at 0.1 mg/kg: 0.10 mg/kg IV
In short: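 Adult mongrel dogs under pentobarbital anaesthesia (35 mg/kg IV, then 3.5 mg/kg/hour infusion), breathing spontaneously; increasing compound doses given IV via femoral vein, each over one minute. LV dP/dt max, heart rate (lead II ECG) and aortic pressure recorded by catheter transducers against ≥30 min control baseline; vehicle controls as needed.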

Question: `COc1ccc(-c2nc3c(C)nn(C)c3c(=O)[nH]2)cc1OC` [Example 16, 1,3-Dimethyl-5-(3,4-dimethoxyphenyl)pyrazolo[4,3-d]pyrimidine-7-one] was tested. Which IC50 (adenosine A1 receptor) did it give?
Answer: The IC50 was 1920 nM.

Question: What about the “% Inhibition of hydrolysis of 3H-cAMP” value (Type 1 Phosphodiesterase; substrate 3H-cAMP 1.0 μM) of the same compound?
Answer: The value was 10%.

Question: And the “% Inhibition of hydrolysis of 3H-cGMP” value (Type 1 Phosphodiesterase; substrate 3H-cGMP 1.0 μM)?
Answer: Its value is 17%.

Question: What about the “% Inhibition of hydrolysis of 3H-cAMP” value (Type 3 Phosphodiesterase) of the same compound?
Answer: Its value is 17%.

Question: What about the “Percent Change Blood Pressure” value ([1]; 0.31 mg/kg IV) of the same compound?
Answer: The value was 1/3.

Question: And the “Percent Change Blood Pressure” value ([1]; 1.00 mg/kg IV)?
Answer: Its value is 1/2.

Question: And the change in vivo at 0.1 mg/kg ([1]; read-out: Percent Change Heart Rate)?
Answer: The change in vivo at 0.1 mg/kg was 1%.

Question: What about the change in vivo at 0.1 mg/kg ([1]; read-out: Percent Change Myocardial Contractility) of the same compound?
Answer: Its change in vivo at 0.1 mg/kg is 2%.

Question: And the change in vivo at 0.31 mg/kg ([1]; 0.31 mg/kg IV, read-out: Percent Change Heart Rate)?
Answer: Its change in vivo at 0.31 mg/kg is -1%.

Question: What about the change in vivo at 0.31 mg/kg ([1]; 0.31 mg/kg IV, read-out: Percent Change Myocardial Contractility) of the same compound?
Answer: The change in vivo at 0.31 mg/kg was -1%.

Question: And the change in vivo at 1 mg/kg ([1]; 1.00 mg/kg IV, read-out: Percent Change Heart Rate)?
Answer: Its change in vivo at 1 mg/kg is -2%.

Question: What about the change in vivo at 1 mg/kg ([1]; 1.00 mg/kg IV, read-out: Percent Change Myocardial Contractility) of the same compound?
Answer: The change in vivo at 1 mg/kg was -1%.

From patent US4666908A, “5-Substituted pyrazolo[4,3-d]pyrimidine-7-ones and methods of use” (Warner-Lambert Company, priority 1985, dated 1987)
